Assay results published in patent publication US20240166652A1, “MODULATORS OF THE INTEGRATED STRESS PATHWAY” (Calico Life Sciences LLC, priority 2017, published 2024).

Test system: ATF4 luciferase reporter in HEK293T cells
Experiment: ATF4-Luc assay (ATF4 luciferase reporter, tunicamycin-treated HEK293T cells)
Type: cell-based, human
Settings: Homo sapiens, HEK-293T; HEK293T cells carrying the ATF4 luciferase reporter, 1 μg/mL tunicamycin, 7 hours

Going from `CC1(O)CC2(NC(=O)COc3ccc(Cl)c(F)c3)CCC1(NC(=O)COc1ccc(Cl)c(F)c1)CC2` (stereo not drawn) [Compound 339, N,N′-(2-hydroxy-2-methylbicyclo[2.2.2]octane-1,4-diyl)bis[2-(4-chloro-3-fluorophenoxy)acetamide]] to `O=C(COc1ccc(Cl)c(F)c1)NC12CCCC(NC(=O)COc3ccc(Cl)c(F)c3)(C1)C2` [Compound 179, N,N′-(bicyclo[3.1.1]heptane-1,5-diyl)bis[2-(4-chloro-3-fluorophenoxy)acetamide]], the EC50 rises from < 10 nM to > 2000 nM. The first is the more potent here.

`O=C(COc1ccc(Cl)c(F)c1)N[C@@]12CC[C@@](NC(=O)COc3ccc(Cl)c(F)c3)(C[C@@H]1O)[C@@H](O)C2` (racemic) [Compound 552, rac-N,N′-[(1R,2S,4R,5S)-2,5-dihydroxybicyclo[2.2.2]octane-1,4-diyl]bis[2-(4-chloro-3-fluorophenoxy)acetamide]] and `O=C(COc1ccc(C(F)(F)F)c(F)c1)NC12CCC(NC(=O)COc3ccc(Cl)c(F)c3)(CC1)[C@@H](O)C2` [Compound 849, 2-(4-chloro-3-fluorophenoxy)-N-[(2S)-4-{2-[3-fluoro-4-(trifluoromethyl)phenoxy]acetamido}-2-hydroxybicyclo[2.2.2]octan-1-yl]acetamide] cannot be ordered by EC50: < 10 nM for the first, < 10 nM for the second.

`O=C(COCc1ccccc1)NC12CC(NC(=O)COc3ccc(Cl)c(F)c3)(C1)C2` [Compound 207, 2-(benzyloxy)-N-{3-[2-(4-chloro-3-fluorophenoxy)acetamido]-bicyclo[1.1.1]pentan-1-yl}acetamide] and `Cc1cccc(COCC(=O)NC23CC(NC(=O)COc4ccc(Cl)c(F)c4)(C2)C3)c1` [Compound 140, 2-(4-chloro-3-fluorophenoxy)-N-(3-{2-[(3-methylphenyl)methoxy]acetamido}-bicyclo[1.1.1]pentan-1-yl)acetamide] fall in the same range of EC50: 50 to 250 nM for the first, 50 to 250 nM for the second.

First: O=C(O)CN(CCOc1ccc(Cl)c(F)c1)C12CC(NC(=O)COc3ccc(Cl)c(F)c3)(C1)C2 [Compound 686, ({3-[2-(4-chloro-3-fluorophenoxy)acetamido]bicyclo[1.1.1]pentan-1-yl}[2-(4-chloro-3-fluorophenoxy)ethyl]amino)acetic Acid]
Second: O=C(COc1ccc(Cl)c(F)c1)NC12CC(NC(=O)COc3cnc(C(F)F)cn3)(C1)C2 [Compound 384, 2-(4-chloro-3-fluorophenoxy)-N-[3-(2-{[5-(difluoromethyl)pyrazin-2-yl]oxy}acetamido)bicyclo[1.1.1]pentan-1-yl]acetamide]
The EC50 of the first is lower: 500 to 2000 nM for the first, > 2000 nM for the second. The first is the more potent here.

First: O=C(COc1ccc(Cl)c(F)c1)NC12CCC(NC(=O)COc3ccccn3)(C1)C2 [Compound 404, 2-(4-chloro-3-fluorophenoxy)-N-(4-{2-[(pyridin-2-yl)oxy]acetamido}bicyclo[2.1.1]hexan-1-yl)acetamide]
Second: Cc1n[nH]c2cc(OCC(=O)NC34CCC(NC(=O)COc5ccc(Cl)c(F)c5)(CC3)C[C@@H]4O)ccc12 [Compound 749, 2-(4-chloro-3-fluorophenoxy)-N-[(3S)-3-hydroxy-4-{2-[(3-methyl-1H-indazol-6-yl)oxy]acetamido}bicyclo[2.2.2]octan-1-yl]acetamide]
The EC50 of the first is higher: 500 to 2000 nM for the first, < 10 nM for the second.

First: Cc1cc(OCC(=O)NC23CCC(NC(=O)COc4ccc(Cl)cc4)(CC2)[C@@H](O)C3)ccc1F [Compound 816, 2-(4-chlorophenoxy)-N-{(2S)-4-[2-(4-fluoro-3-methylphenoxy)acetamido]-2-hydroxybicyclo[2.2.2]octan-1-yl}acetamide]
Second: O=C(COc1ccc2c(c1)OC(F)(F)O2)NC12CCC(NC(=O)COc3ccc(Cl)c(Cl)c3)(CC1)C(=O)N2 [Compound 604, 2-(3,4-dichlorophenoxy)-N-(1-{2-[(2,2-difluoro-2H-1,3-benzodioxol-5-yl)oxy]acetamido}-3-oxo-2-azabicyclo[2.2.2]octan-4-yl)acetamide]
The EC50 of the first is lower: < 10 nM for the first, 10 to 50 nM for the second. The first is the more potent here.
